Measured values published in ChEMBL document CHEMBL3046848, “Synthesis and biological evaluation of novel series of thieno[2,3-d]pyrimidine derivatives as anticancer and antimicrobial agents” (2013).

How the values were obtained:
Format in all cases: functional
Candida albicans = assay: Antimicrobial activity against Candida albicans ATCC2091 assessed as diameter of growth inhibition zone at 1 mg/ml after 48 hr by agar cup diffusion method; details: ATCC2091, 48 h, read-out: IZ
HCC 2998 = assay: Anticancer activity against Homo sapiens (human) HCC2998 cells after 48 hr by SRB assay; details: HCC 2998, 48 h
SF-268 = assay: Growth inhibition of Homo sapiens (human) SF268 cells at 10 uM after 48 hr by SRB assay; details: SF-268, 48 h, read-out: GI
RXF 393 [1] = assay: Anticancer activity against Homo sapiens (human) RXF393 cells after 48 hr by SRB assay; details: RXF 393, 48 h
DU-145 = assay: Growth inhibition of Homo sapiens (human) DU145 cells at 10 uM after 48 hr by SRB assay; details: DU-145, 48 h, read-out: GI
MOLT-4 = assay: Anticancer activity against Homo sapiens (human) MOLT4 cells after 48 hr by SRB assay; details: MOLT-4, 48 h
NCI-H522 = assay: Anticancer activity against Homo sapiens (human) NCI-H522 cells after 48 hr by SRB assay; details: NCI-H522, 48 h
OVCAR-8 = assay: Growth inhibition of Homo sapiens (human) OVCAR8 cells at 10 uM after 48 hr by SRB assay; details: OVCAR-8, 48 h, read-out: GI
SR = assay: Growth inhibition of Homo sapiens (human) SR cells at 10 uM after 48 hr by SRB assay; details: read-out: GI
CAKI-1 = assay: Growth inhibition of Homo sapiens (human) CAKI-1 cells at 10 uM after 48 hr by SRB assay; details: CAKI-1, 48 h, read-out: GI
HT-29 = assay: Growth inhibition of Homo sapiens (human) HT-29 cells at 10 uM after 48 hr by SRB assay; details: HT-29, 48 h, read-out: GI
SNB-75 [2] = assay: Growth inhibition of Homo sapiens (human) SNB75 cells at 10 uM after 48 hr by SRB assay; details: SNB-75, 48 h, read-out: GI
NCI/ADR-RES = assay: Growth inhibition of Homo sapiens (human) NCI/ADR-RES cells at 10 uM after 48 hr by SRB assay; details: read-out: GI
LOX IMVI = assay: Anticancer activity against Homo sapiens (human) LOXIMVI cells after 48 hr by SRB assay
NCI-H23 = assay: Anticancer activity against Homo sapiens (human) NCI-H23 cells after 48 hr by SRB assay; details: NCI-H23, 48 h
SNB-75 [3] = assay: Anticancer activity against Homo sapiens (human) SNB75 cells after 48 hr by SRB assay; details: SNB-75, 48 h
KM12 = assay: Growth inhibition of Homo sapiens (human) KM12 cells at 10 uM after 48 hr by SRB assay; details: KM12, 48 h, read-out: GI
MDA-MB-231 [4] = assay: Growth inhibition of Homo sapiens (human) MDA-MB-231/ATCC cells at 10 uM after 48 hr by SRB assay; details: MDA-MB-231, 48 h, read-out: GI
MDA-MB-231 [5] = assay: Anticancer activity against Homo sapiens (human) MDA-MB-231/ATCC cells after 48 hr by SRB assay; details: MDA-MB-231, 48 h
OVCAR-4 = assay: Growth inhibition of Homo sapiens (human) OVCAR4 cells at 10 uM after 48 hr by SRB assay; details: OVCAR-4, 48 h, read-out: GI
RXF 393 [6] = assay: Growth inhibition of Homo sapiens (human) RXF393 cells at 10 uM after 48 hr by SRB assay; details: RXF 393, 48 h, read-out: GI
SF-295 = assay: Anticancer activity against Homo sapiens (human) SF295 cells after 48 hr by SRB assay; details: SF-295, 48 h
T47D = assay: Anticancer activity against Homo sapiens (human) T47D cells after 48 hr by SRB assay
A498 = assay: Growth inhibition of Homo sapiens (human) A498 cells at 10 uM after 48 hr by SRB assay; details: A498, 48 h, read-out: GI
HL-60(TB) = assay: Anticancer activity against Homo sapiens (human) HL-60(TB) cells after 48 hr by SRB assay; details: HL-60, 48 h
SK-MEL-2 = assay: Growth inhibition of Homo sapiens (human) SK-MEL-2 cells at 10 uM after 48 hr by SRB assay; details: SK-MEL-2, 48 h, read-out: GI
NCI-H226 = assay: Anticancer activity against Homo sapiens (human) NCI-H226 cells after 48 hr by SRB assay; details: NCI-H226, 48 h
HCT-15 = assay: Growth inhibition of Homo sapiens (human) HCT15 cells at 10 uM after 48 hr by SRB assay; details: HCT-15, 48 h, read-out: GI
ACHN = assay: Growth inhibition of Homo sapiens (human) ACHN cells at 10 uM after 48 hr by SRB assay; details: read-out: GI
UACC-257 = assay: Growth inhibition of Homo sapiens (human) UACC257 cells at 10 uM after 48 hr by SRB assay; details: UACC-257, 48 h, read-out: GI
OVCAR-5 = assay: Growth inhibition of Homo sapiens (human) OVCAR5 cells at 10 uM after 48 hr by SRB assay; details: OVCAR-5, 48 h, read-out: GI
IGROV-1 = assay: Growth inhibition of Homo sapiens (human) IGROV1 cells at 10 uM after 48 hr by SRB assay; details: IGROV-1, 48 h, read-out: GI
TK-10 = assay: Anticancer activity against Homo sapiens (human) TK10 cells after 48 hr by SRB assay; details: TK-10, 48 h
HCT-116 = assay: Anticancer activity against Homo sapiens (human) HCT116 cells after 48 hr by SRB assay; details: HCT-116, 48 h
[7] = read-out: LC50 (the source's name)

SMILES: Cc1c(C(N)=O)sc2nc(C)n(/N=c3\scc(-c4ccccc4)n3Cc3ccccc3)c(=O)c12
- zone of inhibition at 1000 µg/mL (Candida albicans): 17 mm
- GI50 (HCC 2998): 3.05 µM
- TGI (HCC 2998): > 100 µM
- CC50 (HCC 2998; [7]): > 100 µM
- inhibition of growth at 10 µM (SF-268): 78.7%
- GI50 (RXF 393 [1]): 3.43 µM
- TGI (RXF 393 [1]): > 100 µM
- CC50 (RXF 393 [1]; [7]): > 100 µM
- inhibition of growth at 10 µM (DU-145): 57.9%
- GI50 (MOLT-4): 24.6 µM
- TGI (MOLT-4): > 100 µM
- CC50 (MOLT-4; [7]): > 100 µM
- GI50 (NCI-H522): 1.73 µM
- TGI (NCI-H522): 7.23 µM
- CC50 (NCI-H522; [7]): > 100 µM
- inhibition of growth at 10 µM (OVCAR-8): 85.3%
- inhibition of growth at 10 µM (SR): 87.2%
- inhibition of growth at 10 µM (CAKI-1): 141%
- inhibition of growth at 10 µM (HT-29): 20.5%
- inhibition of growth at 10 µM (SNB-75 [2]): 45.2%
- inhibition of growth at 10 µM (NCI/ADR-RES): 81.1%
- GI50 (LOX IMVI): 3.54 µM
- TGI (LOX IMVI): > 100 µM
- CC50 (LOX IMVI; [7]): > 100 µM
- GI50 (NCI-H23): 3.12 µM
- TGI (NCI-H23): > 100 µM
- CC50 (NCI-H23; [7]): > 100 µM
- GI50 (SNB-75 [3]): 2.8 µM
- TGI (SNB-75 [3]): > 100 µM
- CC50 (SNB-75 [3]; [7]): > 100 µM
- inhibition of growth at 10 µM (KM12): 86.4%
- inhibition of growth at 10 µM (MDA-MB-231 [4]): 57%
- GI50 (MDA-MB-231 [5]): 3.28 µM
- TGI (MDA-MB-231 [5]): 8.41 µM
- CC50 (MDA-MB-231 [5]; [7]): > 100 µM
- inhibition of growth at 10 µM (OVCAR-4): 66.5%
- inhibition of growth at 10 µM (RXF 393 [6]): 105%
- GI50 (SF-295): 2.93 µM
- TGI (SF-295): > 100 µM
- CC50 (SF-295; [7]): > 100 µM
- GI50 (T47D): 3.25 µM
- TGI (T47D): > 100 µM
- CC50 (T47D; [7]): > 100 µM
- inhibition of growth at 10 µM (A498): 99.3%
- GI50 (HL-60(TB)): 6.68 µM
- TGI (HL-60(TB)): > 100 µM
- CC50 (HL-60(TB); [7]): > 100 µM
- inhibition of growth at 10 µM (SK-MEL-2): 90%
- GI50 (NCI-H226): 3.72 µM
- TGI (NCI-H226): 67.9 µM
- CC50 (NCI-H226; [7]): > 100 µM
- inhibition of growth at 10 µM (HCT-15): 85.1%
- inhibition of growth at 10 µM (ACHN): 92.7%
- inhibition of growth at 10 µM (UACC-257): 95.2%
- inhibition of growth at 10 µM (OVCAR-5): 52.1%
- inhibition of growth at 10 µM (IGROV-1): 89.1%
- GI50 (TK-10): 3.78 µM
- TGI (TK-10): > 100 µM
- CC50 (TK-10; [7]): > 100 µM
- GI50 (HCT-116): 2.13 µM
- TGI (HCT-116): 10 µM
- CC50 (HCT-116; [7]): > 100 µM
